Experimental data published in ChEMBL document CHEMBL5584354, “Impact of Conjugation of the Reactive Oxygen Species (ROS)-Generating Catalytic Moiety with Membrane-Active Antimicrobial Peptoids: Promoting Multitarget Mechanism and Enhancing Selectivity” (J Med Chem, 2024).
Values after ≈ are worked out from the molar mass of the structure shown. Non-standard residues stand in square brackets, D forms with d. Residues, ends and D or L forms follow the SMILES beside them. *: point of attachment. X2 = C[C@@H](c1ccccc1)N(C[C@H](N)C(=O)NCC(=O)N[C@@H](Cc1c[nH]cn1)C(N)=O)*; Gly(N(CH2)2(3-indolyl)) = O=C(O)CNCCc1c[nH]c2ccccc12; Nspe = C[C@H](NCC(=O)O)c1ccccc1; Nphe = O=C(O)CNCc1ccccc1; Nlys = NCCCCNCC(=O)O

What was measured:
[1] = Hemolytic activity in male Sprague-Dawley rat erythrocytes at 50 uM incubated for 1 hr by absorbance based method relative to control; format: toxicity, cell-based, Erythrocyte; details: read-out: Activity
[2] = test system: Staphylococcus aureus; experiment: Antibacterial activity against Staphylococcus aureus ATCC 25923 assessed as inhibition of bacterial growth incubated for 24 hrs by broth dilution method; format: functional
[3] = test system: Escherichia coli; experiment: Antibacterial activity against Escherichia coli ATCC 25922 assessed as inhibition of bacterial growth incubated for 24 hrs by broth dilution method; format: functional
[4] = Hemolytic activity in male Sprague-Dawley rat erythrocytes at 25 uM incubated for 1 hr by absorbance based method relative to control; format: toxicity, cell-based, Erythrocyte; details: read-out: Activity
[5] = Hemolytic activity in male Sprague-Dawley rat erythrocytes assessed as concentration required for 50% hemolysis incubated for 1 hr by absorbance based method; format: toxicity, cell-based, Erythrocyte
[6] = test system: Erythrocyte; experiment: Hemolytic activity in male Sprague-Dawley rat erythrocytes assessed as concentration required for 10% hemolysis incubated for 1 hr by absorbance based method; format: toxicity, cell-based
[7] = Hemolytic activity in male Sprague-Dawley rat erythrocytes at 100 uM incubated for 1 hr by absorbance based method relative to control; format: toxicity, cell-based, Erythrocyte; details: read-out: Activity
[8] = Selectivity index, ratio of HC10 for hemolytic activity in male Sprague-Dawley rat erythrocytes to MIC for antibacterial activity against Escherichia coli ATCC 25922; format: toxicity; details: read-out: Selectivity Index

SMILES | hemolysis at 1 h, 50 µM [1] | MIC [2] | MIC [3] | hemolysis at 1 h, 25 µM [4] | HC50 at 1 h [5] | HC10 [6] | hemolysis at 1 h, 100 µM [7] | selectivity ratio [8]
C[C@@H](c1ccccc1)N(CC(N)=O)C(=O)CN(CCCCN)C(=O)CN(CCCCN)C(=O)CN(C(=O)CN(C(=O)CN(CCCCN)C(=O)CN(C(=O)CN(C(=O)CN(CCCCN)C(=O)CN(CCc1c[nH]c2ccccc12)C(=O)CN(CCc1c[nH]c2ccccc12)C(=O)CN(CCCCN)C(=O)[C@H](Cc1c[nH]cn1)NC(=O)CNC(=O)CN)[C@@H](C)c1ccccc1)[C@@H](C)c1ccccc1)[C@@H](C)c1ccccc1)[C@@H](C)c1ccccc1 (H-GGH[Nlys][Gly(N(CH2)2(3-indolyl))][Gly(N(CH2)2(3-indolyl))][Nlys][Nspe][Nspe][Nlys][Nspe][Nspe][Nlys][Nlys][Nspe]-NH2) | 5.9% | 6.3 µM (≈ 13.3 µg/mL) | 25 µM (≈ 52.9 µg/mL) | 4.98% | > 100 µM | > 100 µM | 6.4% | > 4
C[C@@H](c1ccccc1)N(CC(=O)N(CCCCN)CC(=O)N(CC(=O)N(CC(=O)N(CCCCN)CC(=O)N(CC(=O)N(CC(N)=O)Cc1ccccc1)Cc1ccccc1)[C@@H](C)c1ccccc1)[C@@H](C)c1ccccc1)C(=O)CN(C(=O)CN(CCCCN)C(=O)CN(Cc1ccccc1)C(=O)CN(Cc1ccccc1)C(=O)CN(CCCCN)C(=O)[C@H](Cc1c[nH]cn1)NC(=O)CNC(=O)CN)[C@@H](C)c1ccccc1 (H-GGH[Nlys][Nphe][Nphe][Nlys][Nspe][Nspe][Nlys][Nspe][Nspe][Nlys][Nphe][Nphe]-NH2) | 8.68% | 25 µM (≈ 50.4 µg/mL) | 12.5 µM (≈ 25.2 µg/mL) | 3.01% | > 100 µM | 56.5 µM | 18.4% | 4.5
C[C@@H](c1ccccc1)N(CC(=O)N(CCCCN)CC(=O)N(CC(=O)N(CC(=O)N(CCCCN)CC(=O)N(CC(=O)N(CC(=O)N(CCCCN)CC(=O)N(CCc1c[nH]c2ccccc12)CC(=O)N(CCc1c[nH]c2ccccc12)CC(N)=O)Cc1ccccc1)Cc1ccccc1)Cc1ccccc1)Cc1ccccc1)C(=O)CN(Cc1ccccc1)C(=O)CN(CCCCN)C(=O)[C@H](Cc1c[nH]cn1)NC(=O)CNC(=O)CN (H-GGH[Nlys][Nphe][Nspe][Nlys][Nphe][Nphe][Nlys][Nphe][Nphe][Nlys][Gly(N(CH2)2(3-indolyl))][Gly(N(CH2)2(3-indolyl))]-NH2) | 23.9% | 3.1 µM (≈ 6.44 µg/mL) | 12.5 µM (≈ 26 µg/mL) | 12.7% | > 100 µM | 20.6 µM | 40.6% | 1.6
C[C@@H](c1ccccc1)N(CC(N)=O)C(=O)CN(CCCCN)C(=O)CN(C(=O)CN(C(=O)CN(CCCCN)C(=O)CN(C(=O)CN(C(=O)CN(CCCCN)C(=O)CN(C(=O)CN(C(=O)CN(CCCCN)C(=O)[C@H](Cc1c[nH]cn1)NC(=O)CNC(=O)CN)[C@@H](C)c1ccccc1)[C@@H](C)c1ccccc1)[C@@H](C)c1ccccc1)[C@@H](C)c1ccccc1)[C@@H](C)c1ccccc1)[C@@H](C)c1ccccc1 (H-GGH[Nlys][Nspe][Nspe][Nlys][Nspe][Nspe][Nlys][Nspe][Nspe][Nlys][Nspe]-NH2) | 32% | 6.3 µM (≈ 12 µg/mL) | 12.5 µM (≈ 23.9 µg/mL) | 7.95% | 81.6 µM | 22.9 µM | 61.6% | 1.8
C[C@@H](c1ccccc1)N(CC(=O)N(CCCCN)CC(=O)N(CC(=O)N(CC(=O)N(CCCCN)CC(=O)N(CC(=O)N(C[C@H](N)C(=O)NCC(=O)N[C@@H](Cc1c[nH]cn1)C(N)=O)[C@@H](C)c1ccccc1)[C@@H](C)c1ccccc1)[C@@H](C)c1ccccc1)[C@@H](C)c1ccccc1)C(=O)CN(C(=O)CN(CCCCN)C(=O)CN(CCc1c[nH]c2ccccc12)C(=O)CN(CCc1c[nH]c2ccccc12)C(=O)CNCCCCN)[C@@H](C)c1ccccc1 (H-[Nlys][Gly(N(CH2)2(3-indolyl))][Gly(N(CH2)2(3-indolyl))][Nlys][Nspe][Nspe][Nlys][Nspe][Nspe][Nlys][Nspe]-X2) | 14% | 3.1 µM (≈ 6.57 µg/mL) | 25 µM (≈ 53 µg/mL) | 8.35% | > 100 µM | 31.9 µM | 23.8% | 1.2
C[C@@H](c1ccccc1)N(CC(=O)N(CCCCN)CC(=O)N(CC(=O)N(CC(=O)N(CCCCN)CC(=O)N(CC(=O)N(CC(N)=O)Cc1ccccc1)Cc1ccccc1)[C@@H](C)c1ccccc1)[C@@H](C)c1ccccc1)C(=O)CN(C(=O)CN(CCCCN)C(=O)CN(Cc1ccccc1)C(=O)CN(Cc1ccccc1)C(=O)CNCCCCN)[C@@H](C)c1ccccc1 (H-[Nlys][Nphe][Nphe][Nlys][Nspe][Nspe][Nlys][Nspe][Nspe][Nlys][Nphe][Nphe]-NH2) | 29% | 3.1 µM (≈ 5.47 µg/mL) | 6.3 µM (≈ 11.1 µg/mL) | 12.5% | 83 µM | 22.3 µM | 60.9% | 3.5
